Read-outs that look alike come from different tables or passages of the source.
Key:
human D2R long isoform = human D2R long isoform (Homo sapiens, UniProt P14416); design: host or cells: CHO-K1; method as in PMID 30883109; settings: antagonist mode; previously reported; cited from earlier work
[1] = Phase I metabolic stability in rat liver microsomes (with NADPH); format: in vitro ADME; settings: pH 7.4, presence of NADPH, mean ± SD, n = 3
Description: (§1) We evaluated the Phase I metabolic stability of compounds 2−7 and 14−19 using rat and human liver microsomes, as previously described.[45]
(§2) Phase I metabolic stability assays were conducted using rat and human liver microsomes as previously described[45],[70] with minor modifications. In brief, the reactions were carried out with 100 mM potassium phosphate buffer, pH 7.4, in the presence of NADPH regenerating system (1.3 mM NADPH, 3.3 mM glucose 6-phosphate, 3.3 mM MgCl2, 0.4 U/mL glucose-6-phosphate dehydrogenase, 50 μM sodium citrate). Negative controls without cofactors were assessed to determine the non-CYP-mediated metabolism. Compound disappearance was monitored over time using a liquid chromatography and tandem mass spectrometry (LC/MS) method. All reactions were performed in triplicate.
(§3) Chromatographic analysis was performed on a Dionex ultra high-performance LC system coupled with Q Exactive Focus orbitrap mass spectrometer (Thermo Fisher Scientific Inc., Waltham MA). Separation was achieved using Agilent Eclipse Plus column (100 × 2.1 mm^2 i.d.; maintained at 35 °C) packed with a 1.8 μm C18 stationary phase. […] The total run time for each analyte was 6.5 min. Pumps were operated at a flow rate of 0.3 mL/min. The mass spectrometer controlled by Xcalibur software 4.0.27.13 (Thermo Scientific) was operated with a HESI ion source in positive ionization mode. Compounds were identified in the full-scan mode (from m/z 50 to 750) by comparing t = 0 samples with t = 30 min and t = 60 min samples.

human D4R [2] = target: T1, human D4R (Homo sapiens, UniProt P21917)
T1 sequence (P21917 1-419): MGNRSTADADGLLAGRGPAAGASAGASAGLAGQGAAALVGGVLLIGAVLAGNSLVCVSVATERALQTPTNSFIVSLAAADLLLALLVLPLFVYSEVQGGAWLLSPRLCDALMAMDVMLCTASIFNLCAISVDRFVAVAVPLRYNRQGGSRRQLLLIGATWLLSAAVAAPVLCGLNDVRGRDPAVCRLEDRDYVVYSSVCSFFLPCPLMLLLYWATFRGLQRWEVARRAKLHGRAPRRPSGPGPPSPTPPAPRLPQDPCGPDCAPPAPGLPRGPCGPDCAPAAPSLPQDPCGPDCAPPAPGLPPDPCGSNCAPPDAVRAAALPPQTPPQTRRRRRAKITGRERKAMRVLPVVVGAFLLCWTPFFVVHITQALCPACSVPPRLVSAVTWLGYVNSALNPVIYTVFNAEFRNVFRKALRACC
Description: We investigated the effects of the triazole linker on D4R-mediated inhibition of forskolin-stimulated cAMP accumulation. […] All compounds were tested in both agonist and antagonist modes using CHO-K1 cells stably expressing the human D4R.
D4R-mediated inhibition of forskolin-stimulated cAMP production was assayed using the PerkinElmer LANCE Ultra cAMP assay kit (PerkinElmer, Inc., Waltham, MA). CHO-K1 cells stably expressing the human D4R were maintained in Ham’s F12 supplemented with 10% fetal bovine serum, 100 U/mL penicillin, 100 μg/mL streptomycin, 800 μg/mL G418, and 300 μg/mL hygromycin at 37 °C, 5% CO2, and 90% humidity. Cells were seeded in Hank’s balanced salt solution (with CaCl2 and MgCl2) with 5 mM HEPES buffer and 0.2 μM sodium metabisulfite at a density of 5000 cells/well in 384-well white plates. Compounds and forskolin were made in the same buffer. […] Eu-cAMP tracer and ULight-anti-cAMP solutions were added as directed by the manufacturer and cells were incubated for 2 h in the dark at room temperature, after which a time-resolved fluorescence resonance energy transfer (TR-FRET) signal was measured using a BMG Labtech PHERAstar Fs (BMG Labtech USA, Cary, NC). […] The data from each experiment was fit, as described above, with the Emax, Ant. %, EC50, and IC50 values extracted from the nonlinear regression. These values were then averaged together across experiments using descriptive statistics in Prism and reported as means ± SEM.

human D4R [3] = target: T1, human D4R; design: host or cells: CHO-K1; method as in PMID 30883109; settings: previously reported, cited from earlier work
[4] = Phase I metabolic stability in human liver microsomes (with NADPH); format: in vitro ADME; settings: pH 7.4, presence of NADPH, mean ± SD, n = 3
Description: as §1, §2, §3

[5] = Non-Phase I metabolic stability in human liver microsomes (absence of NADPH); format: in vitro ADME
Description: We also evaluated the non-Phase I metabolic stability of compounds 2−7 and 14−19 using rat and human liver microsomes. […] This may represent metabolism by hydrolases that can specifically attack the amide. Evidence in support of this hypothesis is shown by the remarkable stability of all triazole analogs (14−19) in the absence of NADPH in Figure 5B,D.
as §2
Chromatographic analysis was performed on a Dionex ultra high-performance LC system coupled with Q Exactive Focus orbitrap mass spectrometer (Thermo Fisher Scientific Inc., Waltham MA). Separation was achieved using Agilent Eclipse Plus column (100 × 2.1 mm^2 i.d.; maintained at 35 °C) packed with a 1.8 μm C18 stationary phase. […] The total run time for each analyte was 6.5 min. […]

[6] = Aqueous solubility (remark); format: physicochemical; settings: remark in text

human D2R long isoform, sequence (P14416 whole entry, canonical isoform): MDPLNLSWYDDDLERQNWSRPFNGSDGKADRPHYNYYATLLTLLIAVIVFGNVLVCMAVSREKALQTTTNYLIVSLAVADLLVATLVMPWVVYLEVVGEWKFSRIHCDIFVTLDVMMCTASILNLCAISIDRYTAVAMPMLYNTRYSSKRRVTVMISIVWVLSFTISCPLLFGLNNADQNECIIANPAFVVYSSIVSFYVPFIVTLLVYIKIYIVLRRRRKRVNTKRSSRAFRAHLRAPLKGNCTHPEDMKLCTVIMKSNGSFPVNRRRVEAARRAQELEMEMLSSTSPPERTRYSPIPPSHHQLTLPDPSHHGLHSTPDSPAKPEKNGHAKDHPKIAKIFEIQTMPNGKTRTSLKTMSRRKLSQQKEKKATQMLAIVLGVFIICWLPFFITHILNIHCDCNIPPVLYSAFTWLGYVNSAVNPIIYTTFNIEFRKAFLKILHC

Q: Which “D2R Ant (%)” value (human D2R long isoform) does the source give for `Cc1cccc(NC(=O)CN2CCN(c3cccc4ccccc34)CC2)c1` [Compound 6] here?
A: 100 ± 0%

Q: What about the half-life [1] of the same compound?
A: 10.5 ± 0.03 min

Q: What about the IC50 (human D4R [2]) of the same compound?
A: > 50 µM

Q: What about the “D4R average activity at the highest tested dose” value (human D4R [2]; cAMP, agonist mode, at 33 μM (Emax ND)) of the same compound?
A: ND (16% at 33 μM)

Q: And the “D4R Ant. (%)” value (human D4R [2]; cAMP, antagonist mode, 10 μM forskolin and 10 nM dopamine, normalized to spiperone)?
A: 91 ± 7%

Q: What about the “D4R Emax (%)” value (human D4R [3]; agonist mode) of the same compound?
A: 16.4 ± 3.9%

Q: And the “D4R Ant. (%)” value (human D4R [3]; antagonist mode)?
A: 96.7 ± 2.7%

Q: And the half-life [4]?
A: 16.6 ± 0.17 min

Q: And the “non-Phase I metabolic stability” value [5]?
A: relatively little non-Phase I metabolism

Q: And the aqueous solubility [6]?
A: poor aqueous solubility
